Data as given in BindingDB's records for doi:10.1016/j.bmcl.2005.08.107 (Bristol-Myers Squibb Pharmaceutical Research Institute, 2005).

Target: Coagulation factor X (Homo sapiens, UniProt P00742)
Test: Inhibitory activity against human FXa

Sequence of Coagulation factor X (P00742 41-179 limits assumed): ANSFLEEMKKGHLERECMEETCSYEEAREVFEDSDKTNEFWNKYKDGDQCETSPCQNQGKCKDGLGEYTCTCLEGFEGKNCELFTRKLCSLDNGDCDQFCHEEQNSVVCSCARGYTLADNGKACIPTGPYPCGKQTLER
Sequence of Coagulation factor X (P00742 235-488 limits assumed): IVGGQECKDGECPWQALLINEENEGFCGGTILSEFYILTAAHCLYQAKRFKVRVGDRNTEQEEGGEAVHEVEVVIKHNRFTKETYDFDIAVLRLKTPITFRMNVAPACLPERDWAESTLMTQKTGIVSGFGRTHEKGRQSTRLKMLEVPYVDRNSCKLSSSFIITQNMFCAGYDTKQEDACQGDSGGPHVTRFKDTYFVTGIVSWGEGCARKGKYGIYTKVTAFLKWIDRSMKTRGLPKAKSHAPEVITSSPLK

SMILES | IC50 [nM]
Cc1cc2cc(N=C(N[C@H]3CCCCN(CC(=O)N4CCCC4)C3=O)C(C#N)C(=O)NC(N)=O)ccc2o1 (stereo partly drawn) [(S,Z)-1-(2-cyano-3-(2-methylbenzofuran-5-ylamino)-3-(2-oxo-1-(2-oxo-2-(pyrrolidin-1-yl)ethyl)azepan-3-ylamino)acryloyl)urea] | 13
Cc1cc2cc(N=C(N[C@H]3CCCCN(CC(=O)N4CCCC4)C3=O)C(C#N)C(=O)c3ccc(Cl)cc3)ccc2o1 (stereo partly drawn) [(S,Z)-2-(4-chlorobenzoyl)-3-(2-methylbenzofuran-5-ylamino)-3-(2-oxo-1-(2-oxo-2-(pyrrolidin-1-yl)ethyl)azepan-3-ylamino)acrylonitrile] | 13
COc1ccc(C(=O)C(C#N)C(=Nc2ccc3oc(C)cc3c2)N[C@H]2CCCCN(CC(=O)N3CCCC3)C2=O)cc1 (stereo partly drawn) [(S,Z)-2-(4-methoxybenzoyl)-3-(2-methylbenzofuran-5-ylamino)-3-(2-oxo-1-(2-oxo-2-(pyrrolidin-1-yl)ethyl)azepan-3-ylamino)acrylonitrile] | 13
CN(C)c1ccc(NC(C[N+](=O)[O-])=N[C@H]2CCCCN(CC(=O)N3CCCC3)C2=O)cc1 [(S,Z)-3-(1-(4-(dimethylamino)phenylamino)-2-nitrovinylamino)-1-(2-oxo-2-(pyrrolidin-1-yl)ethyl)azepan-2-one] | > 34000
Cc1ccc(NC(C[N+](=O)[O-])=N[C@H]2CCCCN(CC(=O)N3CCCC3)C2=O)cc1 [(S,Z)-3-(1-(p-toluidino)-2-nitrovinylamino)-1-(2-oxo-2-(pyrrolidin-1-yl)ethyl)azepan-2-one] | > 34000
Cc1cc2cc(N=C(N[C@H]3CCCCN(CC(=O)N4CCCC4)C3=O)C(C#N)C(=O)N3CCC(C)CC3)ccc2o1 (stereo partly drawn) [(S,Z)-3-(2-methylbenzofuran-5-ylamino)-2-(4-methylpiperidine-1-carbonyl)-3-(2-oxo-1-(2-oxo-2-(pyrrolidin-1-yl)ethyl)azepan-3-ylamino)acrylonitrile] | 57
Cc1cc2cc(N=C(N[C@H]3CCCCN(CC(=O)N4CCCC4)C3=O)C(C#N)C(=O)OC(C)(C)C)ccc2o1 (stereo partly drawn) [(S,Z)-tert-butyl 2-cyano-3-(2-methylbenzofuran-5-ylamino)-3-(2-oxo-1-(2-oxo-2-(pyrrolidin-1-yl)ethyl)azepan-3-ylamino)acrylate] | 57
